Measurements from ChEMBL document CHEMBL6078649, “Discovery of Chalcone Derivatives as Bifunctional Molecules with Anti-SARS-CoV-2 and Anti-inflammatory Activities” (J Nat Prod, 2024).

What was measured:
[1] = target: Replicase polyprotein 1ab (Severe acute respiratory syndrome coronavirus 2) (UniProt P0DTD1); test: Inhibition of SARS-CoV-2 3CLPro using DabcylKNSTLQSGLRK-Edans as substrate at 5 uM preincubated for 30 mins followed by substrate addition measured after 20 mins by FRET assay relative to control; details: time 50.0 min
[2] = target: Replicase polyprotein 1ab (Severe acute respiratory syndrome coronavirus 2) (UniProt P0DTD1); test: Inhibition of SARS-CoV-2 3CLPro using DabcylKNSTLQSGLRK-Edans as substrate at 50 uM preincubated for 30 mins followed by substrate addition measured after 20 mins by FRET assay relative to control; details: time 50.0 min
[3] = Cytotoxicity against human Huh-7 cells harboring viral replicon/EGFP/Neo genes assessed as cell viability at 5 uM incubated for 24 hrs by Cell Titer Glo assay relative to control; type: toxicity, cell-based; details: read-out: Activity
[4] = Cytotoxicity against human Huh-7 cells harboring viral replicon/EGFP/Neo genes assessed as cell viability at 50 uM incubated for 24 hrs by Cell Titer Glo assay relative to control; type: toxicity, cell-based; details: read-out: Activity
[5] = tested on: RAW264.7; test: Anti-inflammatory activity against mouse RAW264.7 cells assessed as inhibition of LPS-induced NO production at 1 uM preincubated for 1 hr followed by LPS treatment measured after 24 hrs relative to control; type: functional; details: time 25 hrs
[6] = tested on: RAW264.7; test: Anti-inflammatory activity against mouse RAW264.7 cells assessed as inhibition of LPS-induced NO production at 10 uM preincubated for 1 hr followed by LPS treatment measured after 24 hrs relative to control; type: functional; details: time 25 hrs
[7] = Cytotoxicity against mouse RAW264.7 cells assessed as cell viability at 1 uM incubated for 24 hrs by CCK8 assay relative to control; type: toxicity, cell-based; details: read-out: Activity
[8] = Cytotoxicity against mouse RAW264.7 cells assessed as cell viability at 10 uM incubated for 24 hrs by CCK8 assay relative to control; type: toxicity, cell-based; details: read-out: Activity
[9] = Cytotoxicity against mouse RAW264.7 cells assessed as cell viability at 50 uM incubated for 24 hrs by CCK8 assay relative to control; type: toxicity, cell-based; details: read-out: Activity
[10] = target: Replicase polyprotein 1ab (Severe acute respiratory syndrome coronavirus 2, UniProt P0DTD1)
[11] = Cytotoxicity against human Huh-7 cells harboring viral replicon/EGFP/Neo genes assessed as cell viability incubated for 24 hrs by Cell Titer Glo assay; type: toxicity, cell-based

Compound	inhibition [1]	inhibition [2]	viability at 24 h, 5 µM [3]	viability at 24 h, 50 µM [4]	inhibition at 1 µM [5]	inhibition at 10 µM [6]	viability at 24 h, 1 µM [7]	viability at 24 h, 10 µM [8]	viability at 24 h, 50 µM [9]	IC50 [10]	CC50 at 24 h [11]
O=C(/C=C/c1c(Cl)c(O)c(O)c(O)c1Cl)c1ccc(C(F)(F)F)cc1	2%	1.5%	101%	43.8%	52%	70.7%	76.7%	36.6%	6.9%	442 nM	
O=C(/C=C/c1c(Cl)c(O)c(O)c(O)c1Cl)c1c(Cl)cc(F)cc1Cl	1.3%	1.1%			54.1%	83.2%	100%	47.2%	26.3%	403 nM	
O=C(/C=C/c1c(Cl)c(O)c(O)c(O)c1Cl)c1c(Cl)c(O)c(O)c(O)c1Cl	0%	0.2%	111%	99.3%	22.9%	76.9%	51.2%	37%	82.4%	115 nM	
O=C(/C=C/c1c(Cl)c(O)c(O)c(O)c1Cl)c1ccc(F)cc1F	1.1%	1.1%			35.3%	79%	108%	91.8%	65.8%	131 nM	
O=C(/C=C/c1c(Cl)c(O)c(O)c(O)c1Cl)c1ccc(Cl)cc1Cl	0.6%	0.6%			31.2%	87.3%	81%	77.2%	21.8%	306 nM	
O=C(O)CCc1c(Cl)c(O)c(O)c(O)c1Cl	76.4%	1%			20.8%	-6.2%	130%	80.8%	89.7%	> 5000 nM	
O=C(CCc1cc(O)c(O)c(O)c1)c1ccc(F)cc1	21.4%	6.3%	110%	92.7%	20.8%	54.1%	117%	103%	87.6%	1770 nM	> 100000 nM
O=C(/C=C/c1c(Cl)c(O)c(O)c(O)c1Cl)c1ccc(Cl)c(Cl)c1	-0.8%	-0.3%			58.2%	89.4%	79.8%	50%	12.5%	415 nM	
O=C(/C=C/c1cc(O)c(O)c(O)c1Cl)c1ccc(F)cc1	1.1%	1.1%	106%	71.4%	-4.2%	72.8%	111%	110%	104%	429 nM	
O=C(/C=C/c1c(Cl)c(O)c(O)c(O)c1Cl)c1ccc(Br)cc1	1%	-0.3%			5.2%	68.6%	101%	75.7%	12.4%	794 nM	
O=C(/C=C/c1c(Cl)c(O)c(O)c(O)c1Cl)c1ccccc1F	2.3%	3.1%			43.7%	87.3%	89%	84.6%	72.8%	237 nM	
O=C(/C=C/c1c(Cl)c(O)c(O)c(O)c1Cl)c1ccc(-c2ccc(F)cc2)cc1	-0.6%	0.6%	86.5%	10.2%	39.5%	89.4%	55.5%	33.1%	11.2%	1070 nM	
O=C(/C=C/c1c(Cl)c(O)c(O)c(O)c1Cl)c1cccs1	-1.8%	-0.9%			35.3%	76.9%	99.1%	82.8%	112%	216 nM	
